# Laboratory results taken from the supplement of paper PMC10307832.
# How the values were obtained:
# Experiment in all cases: relative viability (nuclei count vs DMSO), 5 days (fraction); higher = more cells survive
# [1] = compound: CC(C)C[C@@H](C(=O)N[C@H](C(=O)OC1CCCC1)c1ccccc1)[C@H](O)C(=O)NO [Tosedostat] + O=C(c1cc(Cc2n[nH]c(=O)c3ccccc23)ccc1F)N1CCN(C(=O)C2CC2)CC1 [Olaparib] (partner 8 µM)
# In short: (§1)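 Lung cancer cell lines, seeded in 1536-well plates, were treated the following day by pin tool with a single drug or with five library-drug doses (not always all listed) in √10 steps on top of a fixed anchor-drug dose. Cells were fixed and nuclei stained in one step after 5 days, and nuclei were counted. Relative viability is the nuclei count for treated wells divided by that for vehicle wells, reported as medians of duplicate plates.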
# [2] = compound: CC(C)C[C@@H](C(=O)N[C@H](C(=O)OC1CCCC1)c1ccccc1)[C@H](O)C(=O)NO [Tosedostat] + Cc1cc(Nc2cc(N3CCN(C)CC3)nc(Sc3ccc(NC(=O)C4CC4)cc3)n2)n[nH]1 [Tozasertib] (partner 0.1 µM)
# In short: as §1
# [3] = compound: CC(C)C[C@@H](C(=O)N[C@H](C(=O)OC1CCCC1)c1ccccc1)[C@H](O)C(=O)NO [Tosedostat] + CC(C)C[C@H](NC(=O)[C@H](Cc1ccccc1)NC(=O)c1cnccn1)B(O)O [Bortezomib] (partner 0.002 µM)
# In short: as §1
# [4] = compound: CC(C)C[C@@H](C(=O)N[C@H](C(=O)OC1CCCC1)c1ccccc1)[C@H](O)C(=O)NO [Tosedostat] + CS(=O)(=O)CCNCc1ccc(-c2ccc3ncnc(Nc4ccc(OCc5cccc(F)c5)c(Cl)c4)c3c2)o1 [Lapatinib] (partner 2 µM)
# In short: as §1
Cell Line,relative viability ([1]; first compound 0.02 µM),relative viability ([1]; first compound 0.06325 µM),relative viability ([1]; first compound 0.2 µM),relative viability ([1]; first compound 0.6325 µM),relative viability ([1]; first compound 2 µM),relative viability ([2]; first compound 0.02 µM),relative viability ([2]; first compound 0.06325 µM),relative viability ([2]; first compound 0.2 µM),relative viability ([2]; first compound 0.6325 µM),relative viability ([2]; first compound 2 µM),relative viability ([3]; first compound 0.02 µM),relative viability ([3]; first compound 0.06325 µM),relative viability ([3]; first compound 0.2 µM),relative viability ([3]; first compound 0.6325 µM),relative viability ([3]; first compound 2 µM),relative viability ([4]; first compound 0.02 µM),relative viability ([4]; first compound 0.06325 µM),relative viability ([4]; first compound 0.2 µM),relative viability ([4]; first compound 0.6325 µM),relative viability ([4]; first compound 2 µM)
NCI-H522,0.637,0.644,0.658,0.788,0.637,0.561,0.566,0.533,0.509,0.45,–,–,–,–,–,–,–,–,–,–
HCC-15,0.799,0.723,0.62,0.495,0.44,0.571,0.415,0.43,0.274,0.346,1.19,0.98,0.956,0.869,0.998,0.949,0.882,0.748,0.746,0.708
A-427,0.763,0.674,0.708,0.757,0.747,0.217,0.196,0.185,0.162,0.152,1.02,0.916,1.06,1.01,0.879,1.13,1.1,1.01,1.02,0.995
NCI-H3122,0.631,0.593,0.574,0.508,0.562,0.413,0.4,0.393,0.388,0.306,1.02,1.03,1.1,1.05,1.02,1.09,0.99,1.07,1.07,1.04
NCI-H1915,0.281,0.234,0.244,0.203,0.236,0.473,0.432,0.492,0.352,0.289,1.03,0.942,1.01,0.956,0.946,1.08,0.938,0.947,0.953,0.956
NCI-H1355,0.731,0.662,0.649,0.587,0.607,0.63,0.55,0.584,0.533,0.442,1.2,1.14,1.09,0.987,1.07,1.02,1.03,0.88,0.913,0.915
NCI-H2023,0.509,0.424,0.332,0.348,0.372,0.378,0.319,0.35,0.291,0.169,0.961,0.965,0.888,0.649,0.817,0.94,0.953,0.795,0.457,0.753
NCI-H1755,0.924,0.851,0.827,0.857,0.776,0.665,0.578,0.477,0.386,0.319,0.963,0.896,0.928,0.887,0.845,1.1,1.08,1.09,1.1,1.13
HCC-366,0.361,0.334,0.385,0.32,0.33,0.113,0.113,0.0994,0.0993,0.0727,1.05,1.03,1.03,1.07,1.04,1.12,0.954,1,0.993,0.997
SK-MES-1,0.719,0.672,0.698,0.601,0.404,1.01,0.822,0.95,0.801,0.61,–,–,–,–,–,0.41,0.482,0.473,0.472,0.472
NCI-H596,0.66,0.662,0.776,0.598,0.49,0.893,0.875,0.791,0.934,0.729,1.32,1.19,1,1.12,1.04,1.21,1.16,1,1.22,1.07
RERF-LC-KJ,0.903,0.999,0.829,0.757,0.747,0.553,0.462,0.403,0.304,0.293,1.13,1.3,1.05,0.923,0.892,0.824,0.908,0.855,0.821,0.879
LOU-NH91,0.948,0.901,0.893,0.79,0.768,0.686,0.699,0.665,0.574,0.917,0.5,0.545,0.484,0.564,0.44,0.8,0.88,0.875,0.868,0.778
NCI-H1623,–,–,–,–,–,0.41,0.42,0.425,0.387,0.42,–,–,–,–,–,–,–,–,–,–
Calu-6,0.631,0.494,0.5,0.439,0.326,–,–,–,–,–,1.13,0.932,0.943,0.851,0.666,1.33,1.04,0.951,0.899,0.864
LC-2-ad,0.774,0.707,0.714,0.638,0.695,0.472,0.454,0.403,0.297,0.281,1.15,0.971,1.01,0.906,0.791,1.02,0.981,0.993,0.909,1.04
CAL-12T,0.769,0.658,0.588,0.59,0.549,0.366,0.313,0.345,0.279,0.301,0.987,0.897,0.966,0.85,0.549,0.545,0.7,0.728,0.669,0.678
NCI-H1650,0.768,0.732,0.754,0.515,0.594,0.333,0.503,0.339,0.238,0.242,0.207,0.182,0.228,0.197,0.192,0.983,0.828,0.863,0.997,0.918
NCI-H1703,0.45,0.373,0.293,0.29,0.311,–,–,–,–,–,0.447,0.297,0.235,0.221,0.301,1.35,1,1.02,0.743,0.943
BEN,1.11,0.952,1.31,1.09,1.02,0.535,0.523,0.429,0.326,0.252,0.973,1.08,0.827,0.908,0.728,0.924,0.936,0.68,0.987,0.702

Cell Line,relative viability ([1]; first compound 0.02 µM),relative viability ([1]; first compound 0.06325 µM),relative viability ([1]; first compound 0.2 µM),relative viability ([1]; first compound 0.6325 µM),relative viability ([1]; first compound 2 µM),relative viability ([2]; first compound 0.02 µM),relative viability ([2]; first compound 0.06325 µM),relative viability ([2]; first compound 0.2 µM),relative viability ([2]; first compound 0.6325 µM),relative viability ([2]; first compound 2 µM),relative viability ([3]; first compound 0.02 µM),relative viability ([3]; first compound 0.06325 µM),relative viability ([3]; first compound 0.2 µM),relative viability ([3]; first compound 0.6325 µM),relative viability ([3]; first compound 2 µM),relative viability ([4]; first compound 0.02 µM),relative viability ([4]; first compound 0.06325 µM),relative viability ([4]; first compound 0.2 µM),relative viability ([4]; first compound 0.6325 µM),relative viability ([4]; first compound 2 µM)
EMC-BAC-2,0.517,0.41,0.459,0.428,0.378,0.281,0.27,0.265,0.242,0.187,1.13,1,1.07,0.944,0.985,0.894,0.888,0.894,0.853,0.955
NCI-H2170,0.579,0.513,0.686,0.574,0.613,0.737,0.728,0.734,0.707,0.689,–,–,–,–,–,0.25,0.258,0.273,0.289,0.276
EBC-1,0.661,0.637,0.546,0.442,0.409,–,–,–,–,–,0.538,0.516,0.505,0.405,0.334,0.241,0.245,0.195,0.22,0.17
NCI-H441,0.711,0.533,0.364,0.384,0.322,0.911,0.567,0.561,0.542,0.423,0.471,0.396,0.332,0.396,0.404,–,–,–,–,–
NCI-H2342,0.401,0.392,0.444,0.295,0.373,0.489,0.537,0.522,0.496,0.491,–,–,–,–,–,–,–,–,–,–
ChaGo-K-1,0.459,0.399,0.44,0.377,0.325,0.241,0.227,0.269,0.199,0.176,1.15,1.03,0.938,0.962,0.78,–,–,–,–,–
LK-2,0.615,0.798,0.583,0.592,0.437,0.17,0.208,0.165,0.162,0.162,–,–,–,–,–,0.958,0.971,0.892,0.995,1.2
NCI-H1944,0.429,0.427,0.414,0.355,0.371,0.244,0.244,0.23,0.256,0.22,–,–,–,–,–,0.94,0.836,0.854,0.81,0.904
NCI-H1793,0.884,0.879,0.763,0.698,0.669,0.289,0.386,0.295,0.31,0.289,–,–,–,–,–,0.579,0.73,0.874,0.82,0.618
A549,0.42,0.247,0.359,0.26,0.306,–,–,–,–,–,–,–,–,–,–,1,1.07,0.957,0.925,0.939
NCI-H358,0.547,0.679,0.438,0.229,0.211,0.0914,0.1,0.0977,0.0822,0.0804,–,–,–,–,–,0.514,0.454,0.374,0.407,0.456
NCI-H1395,0.461,0.463,0.469,0.412,0.402,0.757,0.748,0.768,0.678,0.675,–,–,–,–,–,1.1,0.944,0.877,0.862,0.674
NCI-H1299,1.04,0.947,0.954,0.864,0.835,–,–,–,–,–,1.05,1,1.01,0.965,0.893,1.02,0.954,0.96,0.951,0.892
SW 900,0.784,1.02,0.983,0.752,0.629,0.573,0.482,0.421,0.427,0.314,–,–,–,–,–,–,–,–,–,–
IA-LM,0.839,0.869,0.655,0.814,0.662,–,–,–,–,–,0.854,0.731,0.814,0.848,0.735,0.885,0.925,0.61,0.746,0.645
NCI-H1792,0.481,0.425,0.386,0.317,0.432,–,–,–,–,–,1.01,0.991,0.934,0.952,1,0.988,1.04,0.878,0.863,0.823
LCLC-103H,0.763,0.773,0.777,0.816,0.772,0.508,0.512,0.545,0.407,0.276,1.1,0.947,1.05,1.25,1.06,–,–,–,–,–
NCI-H1563,–,–,–,–,–,–,–,–,–,–,0.924,0.818,0.943,0.948,0.8,1.03,1.03,0.957,0.956,1.05
NCI-H1648,0.799,0.644,0.764,0.875,0.587,0.518,0.493,0.402,0.576,0.433,–,–,–,–,–,–,–,–,–,–
